Assay results published in ChEMBL document CHEMBL3621195, “Analogues of the marine alkaloids oroidin, clathrodin, and hymenidin induce apoptosis in human HepG2 and THP-1 cancer cells” (Medchemcomm, 2015).

Legend:
HepG2 [1] = experiment: Induction of apoptosis in human HepG2 cells at 50 uM incubated for 24 hrs by Annexin V-FITC and propidium iodide staining based microcapillary flow cytometry; format: functional
HepG2 [2] = experiment: Induction of apoptosis in human HepG2 cells incubated for 24 hrs by Annexin V-FITC and propidium iodide staining based microcapillary flow cytometry; format: functional, cell-based; conditions: HepG2, 24 h
THP-1 [3] = experiment: Induction of apoptosis in human THP1 cells incubated for 24 hrs by Annexin V-FITC and propidium iodide staining based microcapillary flow cytometry; format: functional, cell-based; conditions: THP-1, 24 h
THP-1 [4] = experiment: Induction of apoptosis in human THP1 cells at 50 uM incubated for 24 hrs by Annexin V-FITC and propidium iodide staining based microcapillary flow cytometry; format: functional
THP-1 [5] = experiment: Induction of cell cycle arrest in human THP1 cells assessed accumulation at subG1 phase at 25 uM incubated for 24 hrs by propidium iodide staining based microcapillary flow cytometry (reference value: 2 +/- 1%); format: functional
THP-1 [6] = experiment: Induction of cell cycle arrest in human THP1 cells assessed accumulation at subG1 phase at 25 uM incubated for 48 hrs by propidium iodide staining based microcapillary flow cytometry (reference value: 2 +/- 1%); format: functional

Row | SMILES | Activity (HepG2 [1]) [%] | EC50 (HepG2 [2]) [µM] | EC50 (THP-1 [3]) [µM] | Activity (THP-1 [4]) [%] | Activity (THP-1 [5]) [%] | Activity (THP-1 [6]) [%]
1 | COc1ccc2[nH]c(C(=O)Nc3cccc(-c4c[nH]c(N)n4)c3)cc2c1.Cl | 78 | 18 | 20 | 87 | 45 | 60
2 | Cl.Nc1nc(-c2cccc(NC(=O)c3cc4cc(F)ccc4[nH]3)c2)c[nH]1 | 98 | 13 | 23 | 87 | 36 | 41
